Laboratory results from publication PMC10139140, “Synthesis of Novel 2-(Cyclopentylamino)thiazol-4(5H)-one Derivatives with Potential Anticancer, Antioxidant, and 11β-HSD Inhibitory Activities” (International Journal of Molecular Sciences, 2023).

Experiments:
[1] = molecular target: T1, 11β-HSD1 (Homo sapiens, UniProt P28845); experiment: Inhibition of 11β-HSD1 (cortisone to cortisol, human liver microsomes, cortisol ELISA); type: biochemical
T1 construct: Human liver microsomes were used as a source of 11β-HSD1 enzyme; tissue XenoTech Lot No. 1410013; host or cells: pooled human liver microsomes, mixed gender
Outline: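 Human liver microsomal conversion of cortisone to cortisol, incubated 2.5 h at 37 °C and stopped with 18β-glycyrrhetinic acid. Cortisol was quantified by ELISA against inhibitor-free controls.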

[2] = molecular target: T2, 11β-HSD2 (Homo sapiens, UniProt P80365); experiment: Inhibition of 11β-HSD2 (cortisol to cortisone, human microsomes, cortisol ELISA); type: biochemical; settings: 2.5 h, 37 °C
T2 construct: Human liver microsomes were used as a source of 11β-HSD2 enzyme; tissue XenoTech Lot No. 1710160; host or cells: human kidney microsomes, mixed gender (method text says human liver microsomes)
T2 sequence (P80365 1-405): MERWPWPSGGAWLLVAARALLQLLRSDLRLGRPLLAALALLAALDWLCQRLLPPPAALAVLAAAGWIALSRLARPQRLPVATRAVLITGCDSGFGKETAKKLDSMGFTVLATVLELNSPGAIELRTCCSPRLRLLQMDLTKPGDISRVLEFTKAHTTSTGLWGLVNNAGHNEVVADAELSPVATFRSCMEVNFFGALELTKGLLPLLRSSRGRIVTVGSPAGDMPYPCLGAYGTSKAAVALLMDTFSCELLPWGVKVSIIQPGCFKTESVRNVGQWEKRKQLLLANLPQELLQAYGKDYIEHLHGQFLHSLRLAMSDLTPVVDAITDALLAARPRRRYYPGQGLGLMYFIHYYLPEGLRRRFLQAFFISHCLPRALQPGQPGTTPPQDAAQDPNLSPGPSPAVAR
Experimental: The resulting solution with a final volume of 100 µL was incubated for 2.5 h at 37 °C. […] The level of unreacted cortisol was measured by a commercially available ELISA kit.

[3] = test system: BJ cells; experiment: MTS metabolic activity assay, BJ cells; type: cell-based; settings: Homo sapiens, 72 h, read-out: Cell metabolic activity (MTS), % of untreated control
Outline: (§1)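 Metabolic activity was measured by MTS reduction following a 72 h exposure to a range of compound concentrations. Cells had been plated 24 h beforehand at standard density, with fewer BJ cells per well. Values are percentages relative to untreated controls.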

[4] = test system: human colon carcinoma (Caco-2); experiment: MTS metabolic activity assay, Caco-2 cells; type: cell-based; settings: 72 h; for cell viability, decreases to: Caco-2, higher concentrations, range given for the most effective substances together; for viability at 10 µM / viability at 20 µM / viability at 50 µM / viability at 100 µM / viability at 200 µM / viability at 300 µM / viability at 500 µM: Homo sapiens, read-out: Cell metabolic activity (MTS), % of untreated control; for viability at 10 µM: Caco-2, 10 µM; for viability at 20 µM: Caco-2, 20 µM; for viability at 50 µM: Caco-2, 50 µM; for viability at 100 µM: Caco-2, 100 µM; for viability at 200 µM: Caco-2, 200 µM; for viability at 300 µM: Caco-2, 300 µM; for viability at 500 µM: Caco-2, 500 µM
Outline: as §1

[5] = test system: human pancreatic carcinoma (PANC-1); experiment: MTS metabolic activity assay, PANC-1 cells; type: cell-based; settings: for viability at 10 µM / viability at 20 µM / viability at 50 µM / viability at 100 µM / viability at 200 µM / viability at 300 µM / viability at 500 µM: Homo sapiens, 72 h, read-out: Cell metabolic activity (MTS), % of untreated control; for viability at 10 µM: PANC-1, 10 µM; for viability at 20 µM: PANC-1, 20 µM; for viability at 50 µM: PANC-1, 50 µM; for viability at 100 µM: PANC-1, 100 µM; for viability at 200 µM: PANC-1, 200 µM; for viability at 300 µM: PANC-1, 300 µM; for viability at 500 µM: PANC-1, 500 µM; for highest increase in proliferation (cell metabolic activity): PANC-1, 72 h, range given for the named substances together
Outline: as §1

[6] = test system: glioma (U-118 MG); experiment: MTS metabolic activity assay, U-118 MG cells; type: cell-based; settings: 72 h; for viability at 10 µM / viability at 20 µM / viability at 50 µM / viability at 100 µM / viability at 200 µM / viability at 300 µM / viability at 500 µM: Homo sapiens, U-118-MG, U118-MG, read-out: Cell metabolic activity (MTS), % of untreated control
Outline: as §1

[7] = test system: skin melanoma (SK-MEL-30); experiment: MTS metabolic activity assay, SK-MEL-30 cells; type: cell-based; settings: 72 h; for viability at 10 µM / viability at 20 µM / viability at 50 µM / viability at 100 µM / viability at 200 µM / viability at 300 µM / viability at 500 µM: Homo sapiens, read-out: Cell metabolic activity (MTS), % of untreated control; for viability at 10 µM: SK-MEL-30, 10 µM; for viability at 20 µM: SK-MEL-30, 20 µM; for viability at 50 µM: SK-MEL-30, 50 µM; for viability at 100 µM: SK-MEL-30, 100 µM; for viability at 200 µM: SK-MEL-30, 200 µM; for viability at 300 µM: SK-MEL-30, 300 µM; for viability at 500 µM: SK-MEL-30, 500 µM
Outline: as §1

[8] = test system: human breast carcinoma (MDA-MB-231); experiment: MTS metabolic activity assay, MDA-MB-231 cells; type: cell-based; settings: 72 h; for viability at 10 µM / viability at 20 µM / viability at 50 µM / viability at 100 µM / viability at 200 µM / viability at 300 µM / viability at 500 µM: Homo sapiens, read-out: Cell metabolic activity (MTS), % of untreated control; for viability at 10 µM: MDA-MB-231, 10 µM; for viability at 20 µM: MDA-MB-231, 20 µM; for viability at 50 µM: MDA-MB-231, 50 µM; for viability at 100 µM: MDA-MB-231, 100 µM; for viability at 200 µM: MDA-MB-231, 200 µM; for viability at 300 µM: MDA-MB-231, 300 µM; for viability at 500 µM: MDA-MB-231, 500 µM; for cell viability, decreases to: MDA-MB-231, higher concentrations, range given for the most effective substances together
Outline: as §1

T1 sequence (P28845 whole entry): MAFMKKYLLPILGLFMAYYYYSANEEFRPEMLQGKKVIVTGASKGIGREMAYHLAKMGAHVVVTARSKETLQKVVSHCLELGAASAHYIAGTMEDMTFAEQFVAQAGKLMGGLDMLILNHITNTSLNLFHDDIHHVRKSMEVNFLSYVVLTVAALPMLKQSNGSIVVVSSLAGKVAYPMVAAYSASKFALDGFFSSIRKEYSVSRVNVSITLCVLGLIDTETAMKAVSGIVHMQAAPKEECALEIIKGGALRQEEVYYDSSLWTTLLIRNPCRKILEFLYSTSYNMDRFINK

For `O=C1N=C(NC2CCCC2)SC1c1ccc(Br)cc1` (stereo not drawn) [Compound 3g, 2-(cyclopentylamino)-5-(4-bromophenyl)thiazol-4(5H)-one], the IC50 [1] was 180 ± 30 nM, the inhibition at 10 µM ([1]; 10 µM, 2.5 h, 37 °C) was 87 ± 2.17% and the inhibition at 10 µM [2] was 38.6 ± 1.39%. For the same molecule, the viability at 10 µM [3] was 99.7%, the viability at 20 µM [3] was 97.8% and the viability at 50 µM [3] was 90.8%. For the same molecule, the viability at 100 µM [3] was 88.1%, the viability at 200 µM [3] was 84.2% and the viability at 300 µM [3] was 57.3%. The viability at 500 µM [3] was 55.4%, the “cell viability, decreases to” value [4] was 20–65% and the viability at 10 µM [4] was 91.9%. The viability at 20 µM [4] was 88.8%, the viability at 50 µM [4] was 87.3% and the viability at 100 µM [4] was 80.7%. It also gave a viability at 200 µM [4] of 56.3%, a viability at 300 µM [4] of 30.1% and a viability at 500 µM [4] of 30.9%. It also gave a viability at 10 µM [5] of 116%, a viability at 20 µM [5] of 122% and a viability at 50 µM [5] of 145%. For the same molecule, the viability at 100 µM [5] was 139%, the viability at 200 µM [5] was 94.1% and the viability at 300 µM [5] was 57.9%. The viability at 500 µM [5] was 57.2%, the “highest increase in proliferation (cell metabolic activity)” value (“highest increase in proliferation” below) [5] was 115 to 144% and the viability at 10 µM [6] was 114%. For the same molecule, the viability at 20 µM [6] was 110%, the viability at 50 µM [6] was 105% and the viability at 100 µM [6] was 104%. The viability at 200 µM [6] was 87.3%, the viability at 300 µM [6] was 40.6% and the viability at 500 µM [6] was 32.3%. The viability at 10 µM [7] was 95.4%, the viability at 20 µM [7] was 97.5% and the viability at 50 µM [7] was 98.3%. It also gave a viability at 100 µM [7] of 93.1%, a viability at 200 µM [7] of 71.5% and a viability at 300 µM [7] of 29.7%. The viability at 500 µM [7] was 25.2%, the “cell viability, decreases to” value ([7]; SK-MEL-30, higher concentrations, range given for the most effective substances together) was 20–65% and the viability at 10 µM [8] was 92.9%. It also gave a viability at 20 µM [8] of 93.6%, a viability at 50 µM [8] of 84.6% and a viability at 100 µM [8] of 82%. It also gave a viability at 200 µM [8] of 61.4%, a viability at 300 µM [8] of 43.9% and a viability at 500 µM [8] of 38%. The “cell viability, decreases to” value [8] was 20–65%.

For `O=C1N=C(NC2CCCC2)SC12CCCCC2` [Compound 3h, 2-(cyclopentylamino)-1-thia-3-azaspiro[4.5]dec-2-en-4-one], the IC50 [1] was 70 ± 5 nM, the “% of 11β-HSD1 Inhibition 10 μM” value ([1]; 10 µM, 2.5 h, 37 °C) was 90.49 ± 1.31% and the inhibition at 10 µM ([1]; 10 µM, 2.5 h, 37 °C) was 90%. For the same molecule, the inhibition at 10 µM [2] was under 43%, the viability at 10 µM [3] was 108% and the viability at 20 µM [3] was 106%. The viability at 50 µM [3] was 111%, the viability at 100 µM [3] was 118% and the viability at 200 µM [3] was 122%. For the same molecule, the viability at 300 µM [3] was 115%, the viability at 500 µM [3] was 79% and the “cell viability, decreases to” value [4] was 20–65%. It also gave a viability at 10 µM [4] of 96.3%, a viability at 20 µM [4] of 94.2% and a viability at 50 µM [4] of 99.9%. For the same molecule, the viability at 100 µM [4] was 96.2%, the viability at 200 µM [4] was 95.6% and the viability at 300 µM [4] was 82.6%. It also gave a viability at 500 µM [4] of 65.5%, a viability at 10 µM [5] of 102% and a viability at 20 µM [5] of 96%. The viability at 50 µM [5] was 105%, the viability at 100 µM [5] was 109% and the viability at 200 µM [5] was 117%. The viability at 300 µM [5] was 127%, the viability at 500 µM [5] was 98.4% and the “highest increase in proliferation” value [5] was 115 to 144%. The viability at 10 µM [6] was 111%, the viability at 20 µM [6] was 111% and the viability at 50 µM [6] was 116%. For the same molecule, the viability at 100 µM [6] was 116%, the viability at 200 µM [6] was 121% and the viability at 300 µM [6] was 121%. For the same molecule, the viability at 500 µM [6] was 99.9%, the “highest increase in proliferation” value ([6]; U-118 MG, range given for the named substances together) was 115 to 144% and the viability at 10 µM [7] was 96.1%. It also gave a viability at 20 µM [7] of 100%, a viability at 50 µM [7] of 102% and a viability at 100 µM [7] of 105%. It also gave a viability at 200 µM [7] of 109%, a viability at 300 µM [7] of 106% and a viability at 500 µM [7] of 80.8%. The viability at 10 µM [8] was 91.6%, the viability at 20 µM [8] was 92.7% and the viability at 50 µM [8] was 92.1%. It also gave a viability at 100 µM [8] of 93.5%, a viability at 200 µM [8] of 77.1% and a viability at 300 µM [8] of 64.6%. For the same molecule, the viability at 500 µM [8] was 45.6% and the “cell viability, decreases to” value [8] was 20–65%.
